# Entries after “also recorded” stand apart in the source; their conditions may differ.
# Test system: patients with resistant hypertension
# Test: PRECISION phase 3 trial: urine albumin-creatinine ratio (UACR)
# Format: in vivo, human
# Protocol: A single, randomized study with three sequential treatment parts was designed. The study design addressed both the 4-week placebo-controlled efficacy of 12.5 and 25 mg aprocitentan (Part 1) and the durability of its effects in long-term active treatment with 25 mg aprocitentan for a further 32 weeks (Part 2) followed by a 12-week placebo-controlled withdrawal period with patients re-randomized to 25 mg or placebo (Part 3) (see for example Danaietash P et al; Identifying and treating resistant hypertension in PRECISION—a randomized long-term clinical trial with Aprocitentan. J Clin Hypertension 2022 (in press). Patients with uncontrolled BP (measured as unattended automated office BP) despite the use of three or more antihypertensive medications for at least 1 year were screened. They were switched to a single-tablet triple fixed combination antihypertensive therapy for at least 4 weeks before entering a single-blind placebo run-in period. The 4-week placebo run-in period further excluded placebo responders. The randomization period consisted of 3 sequential parts: • 1) a 4-week double-blind part with aprocitentan 12.5 mg, 25 mg, or placebo (1:1:1 ratio); • 2) a 32-week single-blind part with aprocitentan 25 mg; and • 3) a 12-week randomized withdrawal part with aprocitentan 25 mg or placebo (1:1 ratio).
# • Part 1: Double-blind, randomized parallel-group and placebo-controlled and lasts for 4 weeks. Subjects received (1:1:1 ratio), 25 or 12.5 mg aprocitentan, or placebo. • Part 2: Single-blind and single-arm, lasts for 32 weeks. All subjects received aprocitentan 25 mg. • Part 3: Double-blind withdrawal. All subjects completing part 2 and entering part 3 are re-randomized (1:1 ratio) to either aprocitentan 25 mg or placebo.
# In a population with difficult-to control hypertension (mean age of 62 years, obesity [69.3% of subjects], >50% with diabetes mellitus, 22% with CKD stage 3-4), evaluation of UACR is important. […] The geometric mean UACR at baseline was 26.6 mg/g in the overall population. At Week 4, placebo-corrected reductions in UACR of 30% and 34% with aprocitentan 12.5 mg and 25 mg were noted, respectively.
smiles,measurement,setting,value
"NS(=O)(=O)Nc1ncnc(OCCOc2ncc(Br)cn2)c1-c1ccc(Br)cc1 [aprocitentan, {5-(4-bromo-phenyl)-6-[2-(5-bromo-pyrimidin-2-yloxy)-ethoxy]-pyrimidin-4-yl}-sulfamide]",reduction in UACR,"aprocitentan 12.5 mg, subjects with CKD stage 3-4",−26%
same,reduction in UACR,"aprocitentan 12.5 mg, subjects with baseline microalbuminuria",−43%
same,UACR reduction during part 2,"aprocitentan 25 mg, single-blind part 2",maintained; also recorded: sustained
same,reduction in UACR,"aprocitentan 25 mg, subjects with CKD stage 3-4",−45%
same,reduction in UACR,"aprocitentan 25 mg, subjects with baseline microalbuminuria",−45%
same,antiproteinuric effect (UACR change),patients with chronic kidney disease stage 3-4,−46%
same,antiproteinuric effect (UACR change),patients with eGFR of 60 mL/min per 1.73 m^2 or higher,−26%
same,antiproteinuric effect,"preliminary data, subjects with SGLT-2 inhibitor plus standardized antihypertensive background therapy, small sample size",improved antiproteinuric effect
